The results in this text go back to US20230365592A1 (Agios Pharmaceuticals, Inc., priority 2022, published 2023).

Each structure is given as a SMILES string. Bounds are passed on as bounds.

The first experiment deals with T1, human PAH with the R408W mutation (Homo sapiens, UniProt P00439, R408W).
T1 construct: expressed in transfected cells
T1 sequence (P00439 1-452 R408W): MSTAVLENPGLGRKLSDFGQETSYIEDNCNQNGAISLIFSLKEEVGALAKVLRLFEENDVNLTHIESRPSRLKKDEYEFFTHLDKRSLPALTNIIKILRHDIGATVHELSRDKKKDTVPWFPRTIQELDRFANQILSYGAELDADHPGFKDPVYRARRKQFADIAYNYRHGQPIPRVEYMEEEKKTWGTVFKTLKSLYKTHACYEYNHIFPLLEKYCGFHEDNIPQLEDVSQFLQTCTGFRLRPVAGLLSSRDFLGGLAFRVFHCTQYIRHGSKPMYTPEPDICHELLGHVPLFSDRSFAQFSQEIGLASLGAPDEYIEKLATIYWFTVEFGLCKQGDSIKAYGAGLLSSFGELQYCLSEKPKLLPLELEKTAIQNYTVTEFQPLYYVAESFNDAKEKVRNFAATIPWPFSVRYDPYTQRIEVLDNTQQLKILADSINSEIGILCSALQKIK
Nature of the experiment: Cell Based Phenylalanine Flux Assay.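 Also: after compound treatment, cells received sepiapterin plus isotope-labelled Phenylalanine for 4 hours, then labelled Tyrosine in the medium was quantified, 10-point 2-fold dilution series run in duplicate.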 As to conditions: A375 cells expressing R408W PAH; 24 hrs with compound, then 20 µM sepiapterin and 800 µM 13C9,15N-Phenylalanine for 4 hours; 13C-Tyrosine by LC-MS; average where tested multiple times; read-out: AC50.
Regarding `Cn1cncc1-c1nnc(C(=O)N2CCc3[nH]cnc3C2c2cc3cccc(Cl)n3n2)o1` (centres unmarked), the concentration at half-maximal activity (AC50) (usually the concentration at which the activity in the assay is half-maximal) fell in the range of 1000 to 5000 nM.

With `FC(F)(F)c1cccc2cc(C3c4nc[nH]c4CCN3c3nnc(C4CCC4)o3)nn12` (centres unmarked), the AC50 fell in the range of 1000 to 5000 nM.

Consider `Cn1cc(-c2nnc(C(=O)N3CCc4[nH]cnc4C3c3cc4cc(F)ccn4n3)o2)cn1` (centres unmarked), for which the concentration at half-maximal activity (AC50) was in the range of 1000 to 5000 nM.

As to `Cc1ccn2nc(C3c4nc[nH]c4CCN3C(=O)c3nnc(-c4cnn(C)c4)o3)cc2c1` (centres unmarked), the AC50 is above 5000 nM.

Staying with this experiment, now noted: A375 cells expressing human PAH R408W; 24 hrs compound incubation; 13C-Tyrosine by LC-MS; average where tested multiple times; read-out: AC50.
As for `Cc1ccn2nc([C@H]3c4nc[nH]c4CCN3C(=O)c3nnc(-c4ccccn4)o3)cc2c1` [Example 2385, (R)-(4-(5-methylpyrazolo[1,5-a]pyridin-2-yl)-6,7-dihydro-1H-imidazo[4,5-c]pyridin-5(4H)-yl)(5-(pyridin-2-yl)-1,3,4-oxadiazol-2-yl)methanone], the concentration at half-maximal activity (AC50) is above 5000 nM.

With `c1cc(C2CC2)c2cc([C@H]3c4nc[nH]c4CCN3c3cnccn3)nn2c1` [Example 2224, (R)-4-(4-cyclopropylpyrazolo[1,5-a]pyridin-2-yl)-5-(pyrazin-2-yl)-4,5,6,7-tetrahydro-1H-imidazo[4,5-c]pyridine], the AC50 fell in the range of 1000 to 5000 nM.

Consider `Cc1cccn2nc([C@@H]3c4nc[nH]c4CCN3c3ccc(C(F)(F)F)cn3)cc12` [Example 1941, (S)-4-(4-methylpyrazolo[1,5-a]pyridin-2-yl)-5-(5-(trifluoromethyl)pyridin-2-yl)-4,5,6,7-tetrahydro-1H-imidazo[4,5-c]pyridine], for which the concentration at half-maximal activity (AC50) is below 500 nM.

The same experiment, now with this note: A375 cells expressing human R408W PAH; 24 hrs compound incubation; 13C-Tyrosine by LC-MS; average where tested multiple times; read-out: AC50.
Regarding `CC(C)(F)c1nc(C(F)F)c(C(=O)N2CCc3[nH]cnc3[C@@H]2c2cc3cccc(Cl)n3n2)o1` [Example 1233, (R)-(4-(7-chloropyrazolo[1,5-a]pyridin-2-yl)-6,7-dihydro-1H-imidazo[4,5-c]pyridin-5(4H)-yl)(4-(difluoromethyl)-2-(2-fluoropropan-2-yl)oxazol-5-yl)methanone], the AC50 lay within 1000 to 5000 nM.

On to `Cn1cnc(-c2nnc(C(=O)N3CCc4[nH]cnc4[C@H]3c3cc4cccc(Cl)n4n3)o2)c1` [Example 1099, (S)-(4-(7-chloropyrazolo[1,5-a]pyridin-2-yl)-6,7-dihydro-1H-imidazo[4,5-c]pyridin-5(4H)-yl)(5-(1-methyl-1H-imidazol-4-yl)-1,3,4-oxadiazol-2-yl)methanone], for which the half-maximal activity concentration (AC50) was in the range of 500 to 1000 nM.

For `O=C(c1nnc(-c2ccc(F)cn2)o1)N1CCc2[nH]cnc2[C@@H]1c1cc2c(F)cccn2n1` [Example 880, (R)-(4-(4-fluoropyrazolo[1,5-a]pyridin-2-yl)-6,7-dihydro-1H-imidazo[4,5-c]pyridin-5(4H)-yl)(5-(5-fluoropyridin-2-yl)-1,3,4-oxadiazol-2-yl)methanone], the AC50 is above 5000 nM.

For the molecule `Cc1cccc(-c2nnc(C(=O)N3CCc4[nH]cnc4[C@H]3c3cc4cccc(Cl)n4n3)o2)n1` [Example 1396, (S)-(4-(7-chloropyrazolo[1,5-a]pyridin-2-yl)-6,7-dihydro-1H-imidazo[4,5-c]pyridin-5(4H)-yl)(5-(6-methylpyridin-2-yl)-1,3,4-oxadiazol-2-yl)methanone], the half-maximal activity concentration (AC50) is below 500 nM.

With `Cn1ccc(-c2nnc(C(=O)N3CCc4[nH]cnc4[C@@H]3c3cc4ccccn4n3)o2)n1` [Example 659, (R)-(5-(1-methyl-1H-pyrazol-3-yl)-1,3,4-oxadiazol-2-yl)(4-(pyrazolo[1,5-a]pyridin-2-yl)-6,7-dihydro-1H-imidazo[4,5-c]pyridin-5(4H)-yl)methanone], the half-maximal activity concentration (AC50) was in the range of 1000 to 5000 nM.

With `FC(F)(F)c1cnc(N2CCc3[nH]cnc3[C@H]2c2cc3c(C(F)(F)F)cccn3n2)nc1` [Example 1774, (S)-4-(4-(trifluoromethyl)pyrazolo[1,5-a]pyridin-2-yl)-5-(5-(trifluoromethyl)pyrimidin-2-yl)-4,5,6,7-tetrahydro-1H-imidazo[4,5-c]pyridine], the concentration at half-maximal activity (AC50) was below 500 nM.

Turning to `O=C(N1CCc2[nH]cnc2[C@@H]1c1cc2ccccn2n1)C(F)(F)C1(O)CCC1` [Example 639, (R)-2,2-difluoro-2-(1-hydroxycyclobutyl)-1-(4-(pyrazolo[1,5-a]pyridin-2-yl)-6,7-dihydro-1H-imidazo[4,5-c]pyridin-5(4H)-yl)ethanone], the AC50 lay in the range of 1000 to 5000 nM.

`CC(C)(F)c1nnc(C(=O)N2CCc3[nH]cnc3[C@H]2c2cc3c(F)cccn3n2)o1` [Example 1024, (S)-(5-(2-fluoropropan-2-yl)-1,3,4-oxadiazol-2-yl)(4-(4-fluoropyrazolo[1,5-a]pyridin-2-yl)-6,7-dihydro-1H-imidazo[4,5-c]pyridin-5(4H)-yl)methanone]: the AC50 is below 500 nM.

On to `Cc1cccn2nc([C@H]3c4nc[nH]c4CCN3C(=O)c3nnc(-c4cnn(C)c4C)o3)cc12` [Example 989, (R)-(5-(1,5-dimethyl-1H-pyrazol-4-yl)-1,3,4-oxadiazol-2-yl)(4-(4-methylpyrazolo[1,5-a]pyridin-2-yl)-6,7-dihydro-1H-imidazo[4,5-c]pyridin-5(4H)-yl)methanone], for which the half-maximal activity concentration (AC50) fell in the range of 1000 to 5000 nM.

On to `O=C(c1ocnc1C(F)F)N1CCc2[nH]cnc2[C@@H]1c1cc2c(C(F)(F)F)cccn2n1` [Example 1003, (R)-(4-(difluoromethyl)oxazol-5-yl)(4-(4-(trifluoromethyl)pyrazolo[1,5-a]pyridin-2-yl)-6,7-dihydro-1H-imidazo[4,5-c]pyridin-5(4H)-yl)methanone], for which the AC50 was in the range of 500 to 1000 nM.

As for `CC(C)(O)c1nc(C2CC2)c(C(=O)N2CCc3[nH]cnc3[C@@H]2c2cc3ccccn3n2)o1` [Example 625, (R)-(4-cyclopropyl-2-(2-hydroxypropan-2-yl)oxazol-5-yl)(4-(pyrazolo[1,5-a]pyridin-2-yl)-6,7-dihydro-1H-imidazo[4,5-c]pyridin-5(4H)-yl)methanone], the AC50 lay within 1000 to 5000 nM.

With `CC(C)(O)c1nc(Br)c(C(=O)N2CCc3[nH]cnc3[C@H]2c2cc3c(F)cccn3n2)o1` [Example 746, (S)-(4-bromo-2-(2-hydroxypropan-2-yl)oxazol-5-yl)(4-(4-fluoropyrazolo[1,5-a]pyridin-2-yl)-6,7-dihydro-1H-imidazo[4,5-c]pyridin-5(4H)-yl)methanone], the AC50 was below 500 nM.

Consider `COCc1ccc2c(C(=O)N3CCc4[nH]cnc4[C@H]3c3cc4c(C(F)(F)F)cccn4n3)cnn2c1` [Example 1548, (S)-(6-(methoxymethyl)pyrazolo[1,5-a]pyridin-3-yl)(4-(4-(trifluoromethyl)pyrazolo[1,5-a]pyridin-2-yl)-6,7-dihydro-1H-imidazo[4,5-c]pyridin-5(4H)-yl)methanone], for which the concentration at half-maximal activity (AC50) was in the range of 500 to 1000 nM.

With `Cn1ccc(-c2nnc(C(=O)N3CCc4[nH]cnc4[C@@H]3c3cc4cccc(Cl)n4n3)o2)n1` [Example 977, (R)-(4-(7-chloropyrazolo[1,5-a]pyridin-2-yl)-6,7-dihydro-1H-imidazo(4,5-c]pyridin-5(4H)-yl)(5-(1-methyl-1H-pyrazol-3-yl)-1,3,4-oxadiazol-2-yl)methanone], the half-maximal activity concentration (AC50) is above 5000 nM.

With `Fc1cccn2nc([C@@H]3c4nc[nH]c4CCN3c3ncccn3)cc12` [Example 1616, (S)-4-(4-fluoropyrazolo[1,5-a]pyridin-2-yl)-5-(pyrimidin-2-yl)-4,5,6,7-tetrahydro-1H-imidazo[4,5-c]pyridine], the half-maximal activity concentration (AC50) was below 500 nM.

Consider `O=C(c1ccnn1C(F)(F)F)N1CCc2[nH]cnc2[C@H]1c1cc2c(F)cccn2n1` [Example 842, (S)-(4-(4-fluoropyrazolo[1,5-a]pyridin-2-yl)-6,7-dihydro-1H-imidazo[4,5-c]pyridin-5(4H)-yl)(1-(trifluoromethyl)-1H-pyrazol-5-yl)methanone], for which the AC50 is below 500 nM.
